Test results published in patent US8450361B2, “Substituted indole and azaindole oxoacetyl piperazinamide derivatives” (priority 2010, dated 2013).

What follows are compounds tested on HIV-1 (assay: Single-round infectious HIV-1 luciferase reporter virus infection of HeLa CD4 cells). Conditions: Human immunodeficiency virus 1, HeLa, 72 h, read-out: EC50 Group from Table 1.
Type: cell-based
Method: • Virus production—Human embryonic Kidney cell line, 293T, was propagated in Dulbecco's Modified Eagle Medium (Invitrogen, Carlsbad, Calif.) containing 10% fetal Bovine serum (FBS, Sigma, St. Louis, Mo.). • Virus infection—Human epithelial cell line, HeLa, expressing the HIV-1 receptor CD4 was propagated in Dulbecco's Modified Eagle Medium (Invitrogen, Carlsbad, Calif.) containing 10% fetal Bovine serum (FBS, Sigma, St. Louis, Mo.) and supplemented with 0.2 mg/mL Geneticin (Invitrogen, Carlsbad, Calif.). Virus—Single-round infectious reporter virus was produced by co-transfecting human embryonic Kidney 293 cells with an HIV-1 envelope DNA expression vector and a proviral cDNA containing an envelope deletion mutation and the luciferase reporter gene inserted in place of HIV-1 nef sequences (Chen et al, Ref 41). Transfections were performed using lipofectAMINE PLUS reagent as described by the manufacturer (Invitrogen, Carlsbad, Calif.). Experiment • 1. HeLa CD4 cells were plated in 96 well plates at a cell density of 1×10^4 cells per well in 100 μl Dulbecco's Modified Eagle Medium containing 10% fetal Bovine serum and incubated overnight. • 2. Compound was added in a 2 μl dimethylsulfoxide solution, so that the final assay concentration would be ≦10 μM. • 3. 100 μl of single-round infectious reporter virus in Dulbecco's Modified Eagle Medium was then added to the plated cells and compound at an approximate multiplicity of infection (MOI) of 0.01, resulting in a final volume of 200 μl per well. • 4. Virally-infected cells were incubated at 37 degrees Celsius, in a CO2 incubator, and harvested 72 h after infection. • 5. Viral infection was monitored by measuring luciferase expression from viral DNA in the infected cells using a luciferase reporter gene assay kit, as described by the manufacturer (Roche Molecular Biochemicals, Indianapolis, Ind.). Infected cell supernatants were removed and 50 μl of lysis buffer was added per well. After 15 minutes, 50 μl of freshly-reconstituted luciferase assay reagent was added per well. Luciferase activity was then quantified by measuring luminescence using a Wallac microbeta scintillation counter. • 6. The percent inhibition for each compound was calculated by quantifying the level of luciferase expression in cells infected in the presence of each compound as a percentage of that observed for cells infected in the absence of compound and subtracting such a determined value from 100. • 7. An EC50 provides a method for comparing the antiviral potency of the compounds of this invention. The effective concentration for fifty percent inhibition (EC50) was calculated with the Microsoft Excel Xlfit curve fitting software. For each compound, curves were generated from percent inhibition calculated at 10 different concentrations by using a four parameter logistic model (model 205). Table 1 is the key for the data in Table 2. Results

| Structure (SMILES) | EC50 [nM] |
| --- | --- |
| C[C@@H]1CN(C(=O)c2ccccc2)CCN1C(=O)C(=O)c1c[nH]c2c(NC(=O)NCCCCCCNC(=O)NCCOCCOCCN)cccc12 [P-C-111] | < 1000 |
| C[C@@H]1CN(C(=O)c2ccccc2)CCN1C(=O)C(=O)c1c[nH]c2c(NC(=O)NCCCCNC(=O)Nc3cccc(B(O)O)c3)cccc12 [P-C-112] | < 1000 |
| C[C@@H]1CN(C(=O)c2ccccc2)CCN1C(=O)C(=O)c1c[nH]c2c(NC(=O)NCCCCCCNC(=O)Nc3cccc(B(O)O)c3)cccc12 [P-C-113] | < 1000 |
| C[C@@H]1CN(C(=O)c2ccccc2)CCN1C(=O)C(=O)c1c[nH]c2c(NC(=O)NCCCCCCCCNC(=O)Nc3cccc(B(O)O)c3)cccc12 [P-C-114] | < 1000 |
| COC(=O)NCCCCNC(=O)Nc1cccc2c(C(=O)C(=O)N3CCN(C(=O)c4ccccc4)C[C@H]3C)cn(C(=O)NCCCCNC(=O)OC)c12 [P-C-115] | < 1000 |
| C[C@@H]1CN(C(=O)c2ccccc2)CCN1C(=O)C(=O)c1c[nH]c2c(NC(=O)Nc3cccc(B(O)O)c3)cccc12 [P-C-202] | < 1000 |
| C[C@@H]1CN(C(=O)c2ccccc2)CCN1C(=O)C(=O)c1c[nH]c2c(NC(=O)Nc3ccc(B(O)O)cc3)cccc12 [P-C-204] | < 1000 |
| C[C@@H]1CN(C(=O)c2ccccc2)CCN1C(=O)C(=O)c1c[nH]c2c(NC(=O)NCCOCCOCCN)cccc12 [P-C-205] | < 1000 |
| C[C@@H]1CN(C(=O)c2ccccc2)CCN1C(=O)C(=O)c1c[nH]c2c(NC(=O)NCCOCCOCCNC(=O)c3cccc(B(O)O)c3)cccc12 [P-C-401] | < 1000 |
| C[C@@H]1CN(C(=O)c2ccccc2)CCN1C(=O)C(=O)c1c[nH]c2c(NC(=O)NCCOCCOCCNC(=O)c3ccc(B(O)O)cc3)cccc12 [P-C-402] | < 1000 |
| CC(C)COC(=O)Nc1cccc2c(C(=O)C(=O)N3CCN(C(=O)c4ccccc4)C[C@H]3C)c[nH]c12 [P-D-1] | < 1000 |
| C[C@@H]1CN(C(=O)c2ccccc2)CCN1C(=O)C(=O)c1c[nH]c2c(NS(C)(=O)=O)cccc12 [P-E-1] | < 1000 |
| C[C@@H]1CN(C(=O)c2ccccc2)CCN1C(=O)C(=O)c1cn(S(C)(=O)=O)c2c(NS(C)(=O)=O)cccc12 [P-E-2] | < 1000 |
| Cc1ccc(S(=O)(=O)Nc2cccc3c(C(=O)C(=O)N4CCN(C(=O)c5ccccc5)C[C@H]4C)c[nH]c23)cc1 [P-E-3] | 1000 to 5000 |
| Cc1ccc(S(=O)(=O)Nc2cccc3c(C(=O)C(=O)N4CCN(C(=O)c5ccccc5)C[C@H]4C)cn(S(=O)(=O)c4ccc(C)cc4)c23)cc1 [P-E-4] | < 1000 |
| C[C@@H]1CN(C(=O)c2ccccc2)CCN1C(=O)C(=O)c1c[nH]c2c(NS(=O)(=O)N(C)C)cccc12 [P-E-5] | < 1000 |
| CC(C)/N=C(/Nc1cccc2c(C(=O)C(=O)N3CCN(C(=O)c4ccccc4)C[C@H]3C)c[nH]c12)NC(C)C [P-F-1] | < 1000 |
| CC/N=C(\NCCCN(C)C)Nc1cccc2c(C(=O)C(=O)N3CCN(C(=O)c4ccccc4)C[C@H]3C)c[nH]c12 [P-F-2] | < 1000 |
| C[C@@H]1CN(C(=O)c2ccccc2)CCN1C(=O)C(=O)c1c[nH]c2c(N3CCN(CCCl)C3=O)cccc12 [P-G-1] | < 1000 |
| CC1NC(=O)N(c2cccc3c(C(=O)C(=O)N4CCN(C(=O)c5ccccc5)C[C@H]4C)c[nH]c23)C1=O (stereo partly drawn) [P-G-2] | < 1000 |
| CCOC(=O)CC[C@@H]1NC(=O)N(c2cccc3c(C(=O)C(=O)N4CCC(=C(C#N)c5ccccc5)CC4)c[nH]c23)C1=O [P-G-3] | < 1000 |

| Structure (SMILES) | EC50 [nM] |
| --- | --- |
| CNCCN1CCN(c2cccc3c(C(=O)C(=O)N4CCN(C(=O)c5ccccc5)C[C@H]4C)c[nH]c23)C1=O [P-H-1] | < 1000 |
| C[C@@H]1CN(C(=O)c2ccccc2)CCN1C(=O)C(=O)c1c[nH]c2c(N3CCN(CCN(C)C)C3=O)cccc12 [P-H-2] | < 1000 |
| CNCCCN(C)CCN1CCN(c2cccc3c(C(=O)C(=O)N4CCN(C(=O)c5ccccc5)C[C@H]4C)c[nH]c23)C1=O [P-H-3] | < 1000 |
| C[C@@H]1CN(C(=O)c2ccccc2)CCN1C(=O)C(=O)c1c[nH]c2c(NC(=O)CO)cccc12 [P-I-1] | < 1000 |
| C[C@@H]1CN(C(=O)c2ccccc2)CCN1C(=O)C(=O)c1c[nH]c2c(NC(=O)NCCC(=O)O)cccc12 [P-I-2] | < 1000 |
| N#CC(=C1CCN(C(=O)C(=O)c2c[nH]c3c(NC(=O)NCCC(=O)O)cccc23)CC1)c1ccccc1 [P-I-3] | < 1000 |
| C[C@@H]1CN(C(=O)c2ccccc2)CCN1C(=O)C(=O)c1c[nH]c2c(NC(=O)NCCCC(=O)O)cccc12 [P-I-4] | < 1000 |
| N#CC(=C1CCN(C(=O)C(=O)c2c[nH]c3c(NC(=O)NCCCC(=O)O)cccc23)CC1)c1ccccc1 [P-I-5] | < 1000 |
| C[C@@H]1CN(C(=O)c2ccccc2)CCN1C(=O)C(=O)c1c[nH]c2c(NC(=O)NCCCCCC(=O)O)cccc12 [P-I-6] | < 1000 |
| N#CC(=C1CCN(C(=O)C(=O)c2c[nH]c3c(NC(=O)NCCCCCC(=O)O)cccc23)CC1)c1ccccc1 [P-I-7] | < 1000 |
| N#CC(=C1CCN(C(=O)C(=O)c2c[nH]c3c(NC(=O)NC(CCC(=O)O)C(=O)O)cccc23)CC1)c1ccccc1 (stereo not drawn) [P-I-8] | < 1000 |
| C[C@@H]1CN(C(=O)c2ccccc2)CCN1C(=O)C(=O)c1c[nH]c2c(NC(=O)Nc3ccccc3C(=O)O)cccc12 [P-I-9] | < 1000 |
| N#CC(=C1CCN(C(=O)C(=O)c2c[nH]c3c(NC(=O)Nc4ccccc4C(=O)O)cccc23)CC1)c1ccccc1 [P-I-10] | < 1000 |
| C[C@@H]1CN(C(=O)c2ccccc2)CCN1C(=O)C(=O)c1c[nH]c2c(NC(=O)Nc3cccc(C(=O)O)c3)cccc12 [P-I-11] | < 1000 |
| N#CC(=C1CCN(C(=O)C(=O)c2c[nH]c3c(NC(=O)Nc4cccc(C(=O)O)c4)cccc23)CC1)c1ccccc1 [P-I-12] | < 1000 |
| N#CC(=C1CCN(C(=O)C(=O)c2c[nH]c3c(NC(=O)Nc4ccc(C(=O)O)cc4)cccc23)CC1)c1ccccc1 [P-I-13] | < 1000 |
| C[C@@H]1CN(C(=O)c2ccccc2)CCN1C(=O)C(=O)c1c[nH]c2c(NC(=O)Nc3cc(C(=O)O)cc(C(=O)O)c3)cccc12 [P-I-14] | < 1000 |
| N#CC(=C1CCN(C(=O)C(=O)c2c[nH]c3c(NC(=O)Nc4cc(C(=O)O)cc(C(=O)O)c4)cccc23)CC1)c1ccccc1 [P-I-15] | < 1000 |
| O=C(O)CCCNC(=O)Nc1ncc(F)c2c(C(=O)C(=O)N3CCN(C(=O)c4ccccc4)CC3)c[nH]c12 [P-I-16] | < 1000 |
| N#CC(=C1CCN(C(=O)C(=O)c2c[nH]c3c(N4C(=O)N[C@@H](CCC(=O)O)C4=O)cccc23)CC1)c1ccccc1 [P-I-17] | < 1000 |
| C[C@@H]1CN(C(=O)c2ccccc2)CCN1C(=O)C(=O)c1c[nH]c2c(NC(=O)NCC(=O)O)cccc12 [P-I-18] | < 1000 |
